Key:
[1] = tested on: sensory panel of trained judges; test: Concentration response curve: sweetness intensity scored against sucrose reference standards, Beidler equation fit; assay type: in vivo, human; settings: for Potency at 5 SEV: room temperature, P=SEV*10,000/C; for Beidler equation SEV=a*C/(b+C): constant b (concentration) / Beidler equation SEV=a*C/(b+C): constant a (maximum SEV): best fitting Beidler equation; for Beidler equation SEV=a*C/(b+C): constant b (concentration): C in ppm or mg/L; for Beidler equation SEV=a*C/(b+C): constant a (maximum SEV): SEV = % sucrose equivalent sweetness
Description: A blend composed of 80% purified mogroside-V (Chem Faces, CFS202202), 15% 11-oxo-mogroside-V (Chem Faces, CFS202201), and 5% mogroside IIIA-1 (Chem Faces, CFS202201) was diluted to six different concentrations (from 100 ppm to 650 ppm) in spring water (Ice Mountain, retail). For each solution, a set of five reference standards of sucrose dissolved in water in 0.5% (w/w) concentration increments was also prepared. Each concentration of the mogroside blend was evaluated by 6-8 trained judges. Samples were presented in 4-oz soufflé cups at room temperature, and the test sample was labeled with a random 3-digit code. Panelists tasted the blind-coded sample compared to the set of reference samples to determine the sweetness intensity score to the nearest 0.1 unit. Each concentration was evaluated in duplicate. The sweetness intensity scores were then plotted against the mogroside blend concentration to make a concentration response curve, and the best fitting Beidler equation was generated. […] is a 90% pure mogroside V containing about 6% 11-oxo mogroside-V. Five different concentrations of V90 (Huacheng Bio, LHGE-230401), ranging from 100 ppm to 500 ppm, were diluted in spring water (Ice Mountain, retail). Each dilution was presented to a panel of 7-8 judges experienced in evaluating sweeteners and was accompanied by a range of five sucrose solution reference standards bracketing the sweetness intensity of the test sample in 0.5% (w/w) increments. Panelists assigned a sweetness intensity score to each test sample, including blind duplicates, to the nearest 0.1 unit. All samples were served at room temperature in 4-oz soufflé cups with the test samples labeled with random 3-digit codes. Water and […] crackers were provided for rinsing between samples. Both individual mogrosides were also evaluated at five different concentrations in spring water (Ice Mountain, retail) for sweetness intensity. 11-oxo-mogroside was diluted to concentrations ranging from 200 ppm to 600 ppm and mogroside IIIA-1 was diluted to concentrations from 100 to 500 ppm. For each concentration, a set of five sucrose solution reference standards were prepared in 0.5% (w/w) increments to approximately bracket the sweetness intensity of the test sample. A panel of 6-8 trained judges evaluated each test sample in duplicate, accompanied by the corresponding reference standards, and assigned a sweetness intensity score to the sample to the nearest 0.1 unit. Samples were presented in 4-oz soufflé cups at room temperature, and the test sample was labeled with a random 3-digit code. The sweetness intensity scores were then plotted as a function of mogroside concentration to make a concentration response curve, and the best fitting Beidler equation was generated. P=SEV*10,000/C • where C is the concentration of the mogroside blend in ppm or mg/L and SEV is the % sucrose equivalent sweetness determined by sensory panel.

[2] = tested on: sensory panel of trained judges; test: Temporal properties: onset of sweetness, time to maximum sweetness, decay after expectorating; assay type: in vivo, human; settings: 600 ppm, about 6 SEV, in spring water
Description: Equi-sweet solutions at about 6 SEV were made in spring water (Ice Mountain, retail) of the following sweeteners: purified mogroside-V (Chem Faces, CFS202202), rebaudioside M (95%, Tate & Lyle, lot #1802-2302-1), rebaudioside A (95%, Tate & Lyle, 210617-01), and monk fruit (50% mogroside V, Tate & Lyle, 45GF220305). Another solution was prepared at about 6 SEV of a blend composed of 80% purified mogroside-V (Chem Faces, CFS202202), 15% 11-oxo-mogroside-V (Chem Faces, CFS202201), and 5% mogroside IIIA-1 (Chem Faces, CFS202201). The concentration of each solution can be found in Table 7.
A set of samples of each solution was evaluated by a panel of 7-9 trained judges. Panelists measured the time to onset of sweetness and time to reach maximum sweetness using a timer. Sweetness decay after expectorating was measured by rating sweetness intensity every 5 seconds on a 15-cm line scale graduated in evenly spaced 5-point increments and labeled low (0) to high (60). […] Blind duplicates were evaluated in a second panel under the same conditions.
A solution of V90 was made at 410 ppm in spring water (Ice Mountain, retail) to be about 6 SEV. […] A panel of 7-8 trained judges evaluated the temporal properties and taste attributes of each sample, including blind duplicates, in the same manner described previously in the Mogroside Blend 80/15/5 Taste Quality sections. […]

[3] = tested on: sensory panel of experienced judges; test: Descriptive analysis of sweetener attributes on a 15-cm line scale, low (0) to high (60); assay type: in vivo, human; settings: about 6 SEV solution, 0=low, 60=high
Excerpt: The same samples described above were presented to a panel of 6-9 experienced judges for descriptive analysis. Solutions were blind-coded with random 3-digit codes and served at room temperature for evaluation. Panelists individually scored attributes of each sample, such as sweetness intensity, bitterness, astringency, and the presence of side flavors such as licorice or fruitiness. Scores were based on a 15-cm line scale marked with evenly spaced 5-point increments from low (0) to high (60). Samples were evaluated in duplicate. Water and […] crackers were provided for rinsing between samples. A solution of […] was made at 410 ppm in spring water (Ice Mountain, retail) to be about 6 SEV. A second solution was made at about 6 SEV of purified mogroside-V (Chem Faces, CFS202202) at 325 ppm. A panel of 7-8 trained judges evaluated the temporal properties and taste attributes of each sample, including blind duplicates, in the same manner described previously in the Mogroside Blend 80/15/5 Taste Quality sections. The panel also evaluated the intensity of several sensory attributes such as bitterness, astringency, caramel flavor, and fruitiness. The same 15-cm line scale was used for scoring, labeled from low (0) to high (60) with evenly spaced 5-point increments. The samples were served in 4-oz soufflé cups that were labeled with random 3-digit codes. Samples were evaluated at room temperature and included blind duplicates. Water and […] crackers were provided for rinsing between samples. A 400-ppm solution of V90 (Huacheng Bio, LHGE-230401) was tasted as a reference at the beginning of the descriptive analysis session for calibration verification among panelists.

[4] = tested on: sensory panel of trained judges; settings: 6 SEV solution of sucrose; cited from earlier work
[5] = in spring water, from Beidler curve

Compound	Potency at 5 SEV [1, 5] [x]	Beidler equation SEV=a*C/(b+C): constant b (concentration) [1] [ppm]	Beidler equation SEV=a*C/(b+C): constant a (maximum SEV) [1] [SEV]	Astringent, average intensity score [3]	Bitterness, average intensity score [3]	Body, average intensity score [3]	Caramel, average intensity score [3]	Fruity, average intensity score [3]	Licorice, average intensity score [3]	Sweet Linger, average intensity score [3]	Sweetness, average intensity score [3]	also measured
C[C@H](CC[C@@H](O[C@@H]1O[C@H](CO[C@@H]2O[C@H](CO)[C@@H](O)[C@H](O)[C@H]2O)[C@@H](O)[C@H](O)[C@H]1O[C@@H]1O[C@H](CO)[C@@H](O)[C@H](O)[C@H]1O)C(C)(C)O)[C@H]1CC[C@@]2(C)[C@@H]3CC=C4[C@@H](CC[C@H](O[C@@H]5O[C@H](CO[C@@H]6O[C@H](CO)[C@@H](O)[C@H](O)[C@H]6O)[C@@H](O)[C@H](O)[C@H]5O)C4(C)C)[C@]3(C)C(=O)C[C@]12C [11-oxo-mogroside V]	28	546.3	6.56									times as sweet as sucrose at 5 SEV ([1]; in spring water, running text, listed as 11-oxo mogroside-V): approximately 28 times as sweet as sucrose; times as sweet as sucrose at 5 SEV ([1]; in spring water, running text, listed as 11-oxo-mogroside-V): 28 times as sweet as sucrose
C[C@H](CC[C@@H](O[C@@H]1O[C@H](CO[C@@H]2O[C@H](CO)[C@@H](O)[C@H](O)[C@H]2O)[C@@H](O)[C@H](O)[C@H]1O[C@@H]1O[C@H](CO)[C@@H](O)[C@H](O)[C@H]1O)C(C)(C)O)[C@H]1CC[C@@]2(C)[C@@H]3CC=C4[C@@H](CC[C@H](O)C4(C)C)[C@]3(C)[C@H](O)C[C@]12C [Mogroside IIIA-1, mogroside III-A1]	71	139.9	6.00									bitter taste still present after expectorating [2]: more than 60 seconds
C[C@H](CC[C@@H](O[C@@H]1O[C@H](CO[C@@H]2O[C@H](CO)[C@@H](O)[C@H](O)[C@H]2O)[C@@H](O)[C@H](O)[C@H]1O[C@@H]1O[C@H](CO)[C@@H](O)[C@H](O)[C@H]1O)C(C)(C)O)[C@H]1CC[C@@]2(C)[C@@H]3CC=C4[C@@H](CC[C@H](O[C@@H]5O[C@H](CO[C@@H]6O[C@H](CO)[C@@H](O)[C@H](O)[C@H]6O)[C@@H](O)[C@H](O)[C@H]5O)C4(C)C)[C@]3(C)[C@H](O)C[C@]12C [Mogroside V, mogroside V]	185	920.8	22.03									Astringent, average intensity score ([3]; listed as Mog·V): 2.5¤; Bitterness, average intensity score ([3]; listed as Mog·V): 1.4¤; Body, average intensity score ([3]; listed as Mog·V): 12.1¤; Caramel, average intensity score ([3]; listed as Mog·V): 4.5¤; Fruity, average intensity score ([3]; listed as Mog·V): 3.0¤; Licorice, average intensity score ([3]; listed as Mog·V): 0.7¤; Sweet Linger, average intensity score ([3]; listed as Mog·V): 14.3¤; Sweetness, average intensity score ([3]; listed as Mog·V): 36.3¤; times as sweet as sucrose at 5 SEV ([1]; in spring water, listed as purified Mog-V): ~200 times as sweet as sucrose; times as sweet as sucrose at 5 SEV ([1]; in spring water, running text, listed as mogroside V): 185 times as sweet as sucrose; times as sweet as sucrose at 5 SEV ([1]; in spring water, running text, listed as mogroside-V): about 185 times as sweet as sucrose; Potency at 10 SEV ([1]; 10 SEV, in spring water, from Beidler curve, beyond tested concentrations): 131x
C=C1C[C@@]23CC[C@H]4[C@@](C)(CCC[C@@]4(C)C(=O)O[C@@H]4O[C@H](CO)[C@@H](O)[C@H](O)[C@H]4O)[C@@H]2CC[C@]1(O[C@@H]1O[C@H](CO)[C@@H](O)[C@H](O[C@@H]2O[C@H](CO)[C@@H](O)[C@H](O)[C@H]2O)[C@H]1O[C@@H]1O[C@H](CO)[C@@H](O)[C@H](O)[C@H]1O)C3 [Rebaudioside A, rebaudioside A]				3.7¤	11.2¤	9.1¤	1.9¤	1.3¤	2.7¤	9.6¤	35.1¤	
C=C1C[C@@]23CC[C@H]4[C@@](C)(CCC[C@@]4(C)C(=O)O[C@@H]4O[C@H](CO)[C@@H](O)[C@H](O[C@@H]5O[C@H](CO)[C@@H](O)[C@H](O)[C@H]5O)[C@H]4O[C@@H]4O[C@H](CO)[C@@H](O)[C@H](O)[C@H]4O)[C@@H]2CC[C@]1(O[C@@H]1O[C@H](CO)[C@@H](O)[C@H](O[C@@H]2O[C@H](CO)[C@@H](O)[C@H](O)[C@H]2O)[C@H]1O[C@@H]1O[C@H](CO)[C@@H](O)[C@H](O)[C@H]1O)C3 [Rebaudioside M, rebaudioside M]				2.0¤	1.7¤	11.2¤	3.5¤	1.6¤	1.0¤	17.3¤	36.4¤	
OC[C@H]1O[C@@](CO)(O[C@H]2O[C@H](CO)[C@@H](O)[C@H](O)[C@H]2O)[C@@H](O)[C@@H]1O [sucrose]												sweet linger decay time (typical value) [4]: 20 to 25 s
